Reference: patent publication US20240398772A1, “OXASPIRO DERIVATIVE, AND PREPARATION METHOD THEREFOR AND USE THEREOF” (SHUJING BIOPHARMA CO., LTD, priority 2021, published 2024)

Columns and labels:
MOR = molecular target: T1, MOR (Homo sapiens, UniProt P35372); experiment: Agonist test on MOR, cAMP level (CHO-K1/OP3 cells, cAMP assay kit); type: cell-based; conditions: for EC50: forskolin-stimulated cAMP, read-out: EC50 agonizing MOR receptor to affect cAMP level; for Emax: maximal effect of DAMGO is 100%, read-out: Emax agonizing MOR receptor to affect cAMP level
T1 construct: expressed in transfected cells; host or cells: CHO-K1/OP3 (name from the earlier reading)
Experimental: 5×stimulation buffer was diluted to 1× with ddH2O, an appropriate amount of 500 mM IBMX (generally, the IBMX stock solution was prepared to be 500 mM, namely 1000×) was added to enable the final concentration of the IBMX to be 0.5 mM, and the mixture was mixed well for later use (after the IBMX was added, that precipitation occurred was normal, and the precipitate was dissolved by well mixing). It must be prepared right before use.
1.3.1.2 IBMX was dissolved with DMSO to prepare a 500 mM stock solution, which was aliquoted into 20 μL/tube and cryopreserved at −80° C. to avoid repetition of freezing and thawing.
1.3.1.3 Forskolin was dissolved with DMSO to prepare a 10 mM stock solution, which was aliquoted into 20 μL/tube and cryopreserved at −20° C. for later use.
The CAMP standard substance in the kit returned to room temperature, and an equivalent amount of the experimental buffer was added according to the volume marked on the bottle label. The mixture was vortexed for mixing, aliquoted according to 50 μL/tube, and cryopreserved at −20° C. for later use.
5 mL ddH2O was added to a bottle of cAMP-d2 and a bottle of anti-cAMP-cryptate lyophilized powder, respectively, and the mixture was mixed well by gently turning the mixture upside down, aliquoted according to 125, 62.5, and 30 μL, and the like, and cryopreserved in the dark at −80° C.
1.3.2.1 Positive compound DAMGO and the test compound were serially diluted 4-fold to obtain 10 concentrations with Bravo using experimental buffer in a compound plate (Greiner-781280) at a starting concentration of 2 μM (from DMSO stock solution diluted with experimental buffer) and 20 μM (from DMSO stock solution diluted with experimental buffer), respectively.
1.3.2.2 Cells cryopreserved were thawed in a water bath at 37° C., the cell suspension was added to a centrifuge tube containing 10 mL of HBSS buffer, and the mixture was centrifuged at 750 rpm for 5 min. The supernatant was discarded, the pellet was resuspended in an appropriate amount of experimental buffer, and 20 μL of the pellet was counted using a cell counter. An appropriate amount of the cell suspension was diluted to 0.4×10^6 cells/mL, and 5 μL of the cell suspension was added to each well of a cell plate (the cell density was 2000 cells/well) and centrifuged at 1000 rpm for 1 min. 5 μL of the diluted compound was transferred to a cell plate (PerkinElmer-6008280) with Bravo, 5 μL of 2 μM DAMGO (the final concentration was 1 μM) was transferred to positive control wells, and an equal volume of experimental buffer was transferred to negative control wells, and the cell plate was centrifuged at 1000 rpm for 1 min. The cell plate was sealed and incubated at room temperature for 15 min. Forskolin was diluted to 0.2 mM with DMSO, 25.1 nL of which was transferred to a cell plate with Tecan-D300e, and the plate was centrifuged at 1000 rpm for 1 min, sealed, and incubated at room temperature for 45 min.
The final concentration of the initial point was 712 nM.
1.3.2.4 Preparation of detection reagent: an appropriate amount of a cAMP-d2 stock solution and an anti-cAMP-cryptate stock solution was diluted with a lysis buffer according to the ratio of 1:20, the two solutions were then mixed well by turning the solutions upside down according to the ratio of 1:1, and vortexing was prohibited. 10 μL of the prepared detection reagent was added to a cell plate and centrifuged at 1000 rpm for 1 min. The cell plate was incubated at room temperature for 1 h in the dark. After the cell plate was centrifuged at 1000 rpm for 1 min, the plate was read using Envision. Excitation light at 340 nm, emission light at 620 nm and 665 nm.
The formula for calculating the compound activation rate in the agonist test: […]

[1] = tested on: pain threshold of a mouse; experiment: Mouse thermal radiation tail-flick method; type: in vivo, ICR mice; conditions: for Maximum analgesic percentage (% MPE): ICR mice, intragastric 10 mg/kg, Mean ± SEM, n = 9-10
Experimental: • Intragastric administration at a dose of 10 mg/kg;
ICR mice (normal grade, weighed 25-35 g, purchased from Shanghai Slac Laboratory Animal Co., Ltd.) were first mounted in a special plastic cylinder, their tails were exposed and allowed to droop naturally, and the measurements were made after the animals were calm. The radiation heat source could be an 8.75 mm projection lamp (32 W, adjustable). A light beam with the diameter of about 4 mm was emitted after being focused by a lens, which irradiated the skin at the junction of the middle third and the lower third of the tail (the light source and the skin at the tail must be closely attached); an electronic timer connected with the light source in parallel was used to synchronously record the irradiation duration, that is, when the irradiation started, a stopwatch was automatically started at the same time. When the tail of the animal obviously evaded, the timing was automatically stopped. The measured time interval was the tail flick latency. Mice with tail flick latency of 2-6 seconds were screened to participate in a grouping administration experiment. […] After a dose of a drug was administered to the mice, the pain threshold of the mice was measured at different times.
After a dose of a drug was administered to the mice, the pain threshold of the mice was measured at 0.5 h, 1 h, 2 h, and 3 h (effect view of the analgesic effect is shown in FIG. 1). The formula for calculating the maximum analgesic percentage (% MPE) after administration was as follows: % MPE=(post-administration pain threshold−pre-administration pain threshold)/(15−pre-administration pain threshold)×100%.

T1 sequence (P35372 whole entry): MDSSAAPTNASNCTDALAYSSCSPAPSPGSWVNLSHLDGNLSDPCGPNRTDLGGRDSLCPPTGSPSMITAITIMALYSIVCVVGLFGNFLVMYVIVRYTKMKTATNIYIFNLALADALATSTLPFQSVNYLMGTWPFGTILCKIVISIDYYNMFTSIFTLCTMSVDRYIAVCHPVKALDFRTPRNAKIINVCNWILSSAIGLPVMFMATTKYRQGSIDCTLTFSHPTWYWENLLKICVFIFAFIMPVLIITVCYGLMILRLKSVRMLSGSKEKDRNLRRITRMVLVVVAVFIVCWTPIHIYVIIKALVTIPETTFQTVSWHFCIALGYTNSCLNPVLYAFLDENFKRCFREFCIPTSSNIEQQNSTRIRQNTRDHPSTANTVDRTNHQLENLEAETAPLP

| SMILES | EC50 (MOR) | Emax (MOR) | other results |
| --- | --- | --- | --- |
| Fc1ccc(C2(CCN[C@H]3CCc4ccc(F)cc43)CCOC3(CCOCC3)C2)nc1 (stereo partly drawn) [Compound 1-1, (1S)-6-fluoro-N-(2-(4-(5-fluoropyridin-2-yl)-1,9-dioxaspiro[5.5]undecan-4-yl)ethyl)-2,3-dihydro-1H-inden-1-amine] | 0.44 nM | 103% |  |
| Fc1ccc(C2(CCN[C@H]3CCc4c(F)cccc43)CCOC3(CCOCC3)C2)nc1 (stereo partly drawn) [Compound 2-1, (1S)-4-fluoro-N-(2-(4-(5-fluoropyridin-2-yl)-1,9-dioxaspiro[5.5]undecan-4-yl)ethyl)-2,3-dihydro-1H-inden-1-amine] | 23.5 nM | 101% |  |
| Fc1ccc(C2(CCN[C@H]3CCc4ccccc43)CCOC3(CCOCC3)C2)nc1 (stereo partly drawn) [Compound 3-1, (1S)-N-(2-(-4-(5-fluoropyridin-2-yl)-1,9-dioxaspiro[5.5]undecan-4-yl)ethyl)-2,3-dihydro-1H-inden-1-amine] | 0.79 nM | 99.9% |  |
| Fc1ccc(C2(CCNC3CCc4ccc(Cl)cc43)CCOC3(CCOCC3)C2)nc1 (stereo not shown) [Compound 4, 6-chloro-N-(2-(4-(5-fluoropyridin-2-yl)-1,9-dioxaspiro[5.5]undecan-4-yl)ethyl)-2,3-dihydro-1H-inden-1-amine] | 2.19 nM | 103% |  |
| Fc1ccc(C2(CCN[C@H]3CCc4c(Cl)cccc43)CCOC3(CCOCC3)C2)nc1 (stereo partly drawn) [Compound 5-1, (1S)-4-chloro-N-(2-(4-(5-fluoropyridin-2-yl)-1,9-dioxaspiro[5.5]undecan-4-yl)ethyl)-2,3-dihydro-1H-inden-1-amine] | 1.33 nM | 111% |  |
| Cc1cccc2c1CC[C@@H]2NCCC1(c2ccc(F)cn2)CCOC2(CCOCC2)C1 (stereo partly drawn) [Compound 6-1, (1S)-N-(2-(4-(5-fluoropyridin-2-yl)-1,9-dioxaspiro[5.5]undecan-4-yl)ethyl)-4-methyl-2,3-dihydro-1H-inden-1-amine] | 1.56 nM | 118% |  |
| Fc1ccc(C2(CCN[C@H]3CCc4c(Br)cccc43)CCOC3(CCOCC3)C2)nc1 (stereo partly drawn) [Compound 7-1, (1S)-4-bromo-N-(2-(4-(5-fluoropyridin-2-yl)-1,9-dioxaspiro[5.5]undecan-4-yl)ethyl)-2,3-dihydro-1H-inden-1-amine] | 1.69 nM | 116% |  |
| Fc1ccc([C@]2(CCN[C@H]3Cc4cccc(Br)c4C3)CCOC3(CCOCC3)C2)nc1 [Compound 10-1-1, (S)-4-bromo-N-(2-((R)-4-(5-fluoropyridin-2-yl)-1,9-dioxaspiro[5.5]undecan-4-yl)ethyl)-2,3-dihydro-1H-inden-2-amine] | 0.8 nM | 104% |  |
| Fc1ccc(C2(CCNCc3cccc(Cl)c3)CCOC3(CCOCC3)C2)nc1 (stereo not shown) [Compound 11, N-(3-chlorobenzyl)-2-(4-(5-fluoropyridin-2-yl)-1,9-dioxaspiro[5.5]undecan-4-yl)ethan-1-amine] | 7.75 nM | 100% |  |
| Cc1c(Cl)cccc1CNCC[C@@]1(c2ccc(F)cn2)CCOC2(CCOCC2)C1 [Compound 12-1, (R)—N-(3-chloro-2-methylbenzyl)-2-(4-(5-fluoropyridin-2-yl)-1,9-dioxaspiro[5.5]undecan-4-yl)ethan-1-amine] | 1.29 nM | 93.8% | Maximum analgesic percentage (% MPE) ([1]; 0.5 h after administration): 99.48 ± 0.52 %; Maximum analgesic percentage (% MPE) ([1]; 1 h after administration): 86.20 ± 9.32 %; Maximum analgesic percentage (% MPE) ([1]; 2 h after administration): 89.98 ± 10.02 %; Maximum analgesic percentage (% MPE) ([1]; 3 h after administration): 78.89 ± 10.05 %; Maintenance of the analgesic effect compared with oxycodone ([1]; mouse tail flick, 0.5-3 h after administration): maintained for a longer period of time; Drug effect compared with oxycodone ([1]; mouse tail flick, same dose (10 mg/kg intragastric)): better drug effect than oxycodone |
| Fc1ccc(C2(CCNCc3cccc(Cl)c3Cl)CCOC3(CCOCC3)C2)nc1 (stereo not shown) [Compound 13, N-(2,3-dichlorobenzyl)-2-(4-(5-fluoropyridin-2-yl)-1,9-dioxaspiro[5.5]undecan-4-yl)ethan-1-amine] | 17.3 nM | 78.9% |  |
| Fc1ccc(C2(CCNCc3cccc(Cl)c3F)CCOC3(CCOCC3)C2)nc1 (stereo not shown) [Compound 14, N-(3-chloro-2-fluorobenzyl)-2-(4-(5-fluoropyridin-2-yl)-1,9-dioxaspiro[5.5]undecan-4-yl)ethan-1-amine] | 24.2 nM | 88.1% |  |
| Clc1cccc2c1CCC2NCCC1(c2ccccn2)CCOC2(CCOCC2)C1 (stereo not shown) [Compound 16, 4-chloro-N-(2-(4-(pyridin-2-yl)-1,9-dioxaspiro[5.5]undecan-4-yl)ethyl)-2,3-dihydro-1H-inden-1-amine] | 2.4 nM | 102% |  |
| Fc1ccc(C2(CCNC3Cc4cccc(Cl)c4C3)CCOC3(CCOCC3)C2)nc1 (stereo not shown) [Compound 17, 4-chloro-N-(2-(4-(5-fluoropyridin-2-yl)-1,9-dioxaspiro[5.5]undecan-4-yl)ethyl)-2,3-dihydro-1H-inden-2-amine] | 2.14 nM | 93.8% |  |
| Fc1ccc([C@]2(CCN[C@H]3Cc4cccc(Cl)c4C3)CCOC3(CCOCC3)C2)nc1 [Compound 17-1-1, (S)-4-chloro-N-(2-((R)-4-(5-fluoropyridin-2-yl)-1,9-dioxaspiro[5.5]undecan-4-yl)ethyl)-2,3-dihydro-1H-inden-2-amine] | 0.64 nM | 102% |  |
| COc1ccc2c3c1O[C@H]1C(=O)CC[C@@]4(O)[C@@H](C2)N(C)CC[C@]314 [Oxycodone, reference compound] |  | 95.2% | Maximum analgesic percentage (% MPE) ([1]; 0.5 h after administration): 37.87 ± 12.44%; Maximum analgesic percentage (% MPE) ([1]; 2 h after administration): 3.63 ± 8.14%; Maximum analgesic percentage (% MPE) ([1]; 3 h after administration): −0.23 ± 6.48% |
